Key:
M14 (Melanoma) [1] = test: Bliss excess, mean over the matrix (fraction); higher = more synergy
How it was run: (§1)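 Cell lines in DMEM/F12 or RPMI with 10% FBS were plated in 1536-well plates, held 24 hours at 37°C, 5% CO2, then given two-drug dose matrices for 72 hours (DMSO typically 0.2%). Viability was read by CellTiter-Glo 2.0 luminescence and scaled as inhibition from 0 (vehicle wells) to 1 (blank wells). Combination Emax is the second-highest inhibition in the matrix; Bliss excess is observed combination effect minus expected EA + EB − EA·EB, EA and EB being single-agent effects.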

[2] = system: ATN-1 (T-Lymphoblastic Leukemia); test: combination Emax (second highest fraction inhibited in the dose matrix, 72 h); higher = more inhibition; extreme values may be limits of the assay
How it was run: as §1

[3] = system: BC-1 (B-Cell Non-Hodgkin's Lymphoma); test: as above
How it was run: as §1

[4] = system: BT-474 (Breast Carcinoma); test: as above
How it was run: as §1

[5] = system: COR-L105 (Lung Adenocarcinoma); test: as above
How it was run: as §1

DK-MG (Glioblastoma) = test: as above
How it was run: as §1

GCIY (Gastric Carcinoma) = test: as above
How it was run: as §1

[6] = system: HT-3 (Cervical Carcinoma); test: as above
How it was run: as §1

[7] = system: JURL-MK1 (Chronic Myelogenous Leukemia); test: as above
How it was run: as §1

M14 (Melanoma) [8] = test: as above
How it was run: as §1

[9] = system: MDA-MB-175-VII (Breast Carcinoma); test: as above
How it was run: as §1

MG-63 (Osteosarcoma) = test: as above
How it was run: as §1

[10] = system: NCI-H1435 (Non-Small Cell Lung Carcinoma); test: as above
How it was run: as §1

[11] = system: NCI-H2009 (Lung Adenocarcinoma); test: as above
How it was run: as §1

NCI-H2452 (Mesothelioma) = test: as above
How it was run: as §1

[12] = system: OVKATE (Ovarian Carcinoma); test: as above
How it was run: as §1

[13] = system: RPMI-8402 (T-Lymphoblastic Leukemia); test: as above
How it was run: as §1

[14] = system: RS4-11 (B-Lymphoblastic Leukemia); test: as above
How it was run: as §1

RVH-421 (Melanoma) [15] = test: Bliss excess, mean over the matrix (fraction); higher = more synergy
How it was run: as §1

RVH-421 (Melanoma) [16] = test: combination Emax (second highest fraction inhibited in the dose matrix, 72 h); higher = more inhibition; extreme values may be limits of the assay
How it was run: as §1
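Wherever Bliss excess, mean over the matrix is given: after 72 h of two-drug dosing.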

SMILES | Bliss excess (M14 (Melanoma) [1]) | combination Emax [2] | combination Emax [3] | combination Emax [4] | combination Emax [5] | combination Emax (DK-MG (Glioblastoma)) | combination Emax (GCIY (Gastric Carcinoma)) | combination Emax [6] | combination Emax [7] | combination Emax (M14 (Melanoma) [8]) | combination Emax [9] | combination Emax (MG-63 (Osteosarcoma)) | combination Emax [10] | combination Emax [11] | combination Emax (NCI-H2452 (Mesothelioma)) | combination Emax [12] | combination Emax [13] | combination Emax [14] | Bliss excess (RVH-421 (Melanoma) [15]) | combination Emax (RVH-421 (Melanoma) [16])
C=CCn1c(=O)c2cnc(Nc3ccc(N4CCN(C)CC4)cc3)nc2n1-c1cccc(C(C)(C)O)n1 [AZD1775] + C1CN(CCC1(C(=O)N[C@@H](CCO)C2=CC=C(C=C2)Cl)N)C3=NC=NC4=C3C=CN4 [Capivasertib] (first compound max 3 µM, partner max 3 µM) | 0.0065 | 0.994 | 0.97 | 0.47 | 0.584 | 0.485 | 0.668 | 0.736 | 0.986 | 0.766 | 0.506 | 0.668 | 0.442 | 0.883 | 0.816 | 0.322 | 1 | 0.939 | – | –
CN(CCO)CC[C@H](CSc1ccccc1)Nc1ccc(S(=O)(=O)NC(=O)c2ccc(N3CCC([C@@H](O)c4ccccc4-c4ccc(Cl)cc4)CC3)cc2)cc1S(=O)(=O)C(F)(F)F [AZD4320] + C[C@@H]1COCCN1C2=NC(=NC(=C2)C3(CC3)[S@](=N)(=O)C)C4=C5C=CNC5=NC=C4 [AZD6738] (first compound max 1 µM, 7x7, partner max 10 µM) | – | 0.978 | 0.901 | 0.259 | 0.54 | 0.359 | 0.918 | 0.764 | 1 | – | 0.474 | 0.525 | 0.852 | 0.543 | 0.704 | 0.621 | 1 | 1 | -0.0511 | 0.387
Cc1cc2ncnn2cc1Nc1ncc2c(n1)n(C1CCOCC1)c(=O)n2C [AZD7648] + C=CCn1c(=O)c2cnc(Nc3ccc(N4CCN(C)CC4)cc3)nc2n1-c1cccc(C(C)(C)O)n1 [AZD1775] (first compound max 10 µM, partner max 1 µM) | – | 1 | 0.997 | 0.324 | 0.492 | 0.43 | 0.49 | 0.401 | 0.99 | – | 0.38 | 0.466 | 0.355 | 0.566 | 0.663 | 0.422 | 1 | 0.952 | 0.0039 | 0.289
CN(CCO)CC[C@H](CSc1ccccc1)Nc1ccc(S(=O)(=O)NC(=O)c2ccc(N3CCC([C@@H](O)c4ccccc4-c4ccc(Cl)cc4)CC3)cc2)cc1S(=O)(=O)C(F)(F)F [AZD4320] + C1CN(CCC1(C(=O)N[C@@H](CCO)C2=CC=C(C=C2)Cl)N)C3=NC=NC4=C3C=CN4 [Capivasertib] (first compound max 1 µM, 7x7, partner max 3 µM) | – | 0.715 | 0.35 | 0.254 | 0.411 | 0.255 | 0.576 | 0.0692 | 0.87 | – | 0.799 | 0.271 | 0.876 | 0.0559 | 0.202 | 0.24 | 0.961 | 1 | -0.0454 | 0.486
Cc1cc2ncnn2cc1Nc1ncc2c(n1)n(C1CCOCC1)c(=O)n2C [AZD7648] + C[C@@H]1COCCN1C2=NC(=NC(=C2)C3(CC3)[S@](=N)(=O)C)C4=C5C=CNC5=NC=C4 [AZD6738] (first compound max 10 µM, 7x7, partner max 10 µM) | – | 0.995 | 0.941 | 0.24 | 0.531 | 0.273 | 0.774 | 0.536 | 1 | – | 0.341 | 0.503 | 0.217 | 0.339 | 0.525 | 0.377 | 0.988 | 0.871 | 0.0381 | 0.322
Cc1cc2ncnn2cc1Nc1ncc2c(n1)n(C1CCOCC1)c(=O)n2C [AZD7648] + CN(C)CCCOc1ccc(-c2ccc3ncc4c(c3c2)n(C2CCOCC2)c(=O)n4C)cn1 [AZD0156] (first compound max 10 µM, 7x7, partner max 1 µM) | – | 0.481 | 0.634 | 0.234 | 0.339 | 0.27 | 0.437 | 0.143 | 0.406 | – | 0.288 | 0.331 | 0.226 | 0.14 | 0.42 | 0.35 | 0.382 | 0.246 | -0.0099 | 0.274

— the supplement of paper PMC11061612
